Columns and labels:
Type in all cases: in vivo
[1] = tested on: DS male mice; assay: Anti-pentylenetetrazole activity; details: for Anti-pentylenetetrazol activity, ED50: given orally 60 minutes prior to pentylenetetrazol 125 mg/kg s.c., complete protection against mortality, observed two hours; for times more potent than diazepam in anti-pentylenetetrazol activity: relative to diazepam (Compound No. 5)
Text: (1) Anti-pentylenetetrazole activity:
The convulsions were disregarded.

[2] = tested on: DS male mice; assay: Taming activity (inhibition of electroshock-induced fighting); details: for Taming activity ED50: administered 60 minutes prior, inhibition of fighting responses, 5 pairs of mice; for times more potent than diazepam in taming activity: relative to diazepam (Compound No. 5)
Method: This test was measured on DS male mice. […] These pairs of mice were selected in the morning and used for drug test in the afternoon. The test compound was administered to both mice of the pairs 60 minutes prior to the experiment. Results were obtained as the mean percentage of inhibition of fighting responses in a group of 5 pairs and shown by ED50 [Tedeschi, et al.: J. Pharmacol Exp. Thev., 125, 28-34 (1959)].

[3] = tested on: DS male mice; assay: Rotarod performance activity; details: fall from rod within less than 2 minutes; 10 mice per dose
Method: (3) Rotarod performance activity:
This test was measured on DS male mice. The mouse was put on a scraped rod of wood, 3 cm in diameter, turning at the rate of five rotations per minute. The mice that could remain on the rod for three or more minutes in successive trials were selected and placed in a group of 10 mice for each dose. If the mouse fell down from the rod within less than 2 minutes, the test compound was considered to be effective. Results were shown by ED50 [Dunham, et al.: J. Am. Pharm. Assoc., 46, 208 (1957)].

[4] = relative to chlordiazepoxide (Compound No. 4)

SMILES	Anti-pentylenetetrazol activity, ED50 [1] [mg/kg]	times more potent than diazepam in anti-pentylenetetrazol activity [1] [times]	Taming activity ED50 [2] [mg/kg]	times more potent than diazepam in taming activity [2] [times]	Rotarod performance ED50 [3] [mg/kg]	times more potent than chlordiazepoxide in anti-pentylenetetrazol activity [1, 4] [times]	times more potent than chlordiazepoxide in taming activity [2, 4] [times]
CN(C(=O)CNC(=O)CN)c1ccc(Cl)cc1C(=O)c1ccccc1Cl.O [Compound No. 2, 2-o-chlorobenzoyl-4-chloro-N-methyl-N^α -glycyl-glycinanilide hydrate]	0.58	2 to 4	3.0	2 to 4			
CN(C(=O)CNC(=O)CN)c1ccc(Cl)cc1C(=O)c1ccccc1F.Cl [Compound No. 3, 2-o-fluorobenzoyl-4-chloro-N-methyl-N^α -glycyl-glycinanilide hydrochloride]	0.33	2 to 4	1.6	2 to 4	17.0		
CN(C(=O)CNC(=O)CN)c1ccc(Cl)cc1C(=O)c1ccccc1 [Compound No. 1, 2-benzoyl-4-chloro-N-methyl-N^α -glycyl-glycinanilide]	1.0					2 to 3	2 to 3
